This is an account of results in article PMC2944806, “HLA Class I Binding of HBZ Determines Outcome in HTLV-1 Infection” (PLoS Pathogens, 2010).

The target of assay [1] is T1, HLA class I molecule A*0201 (Homo sapiens, UniProt P04439, D140Y/D185E/D98H/E176V/E277Q/G131W/G231S/I119V/I121R/I166T/I218V/L300P/L318F/N151K/N90K/P208A/P217A/Q86G/Q94H/R138H/R169H/T345S).
T1 construct: purchased ProImmune Ltd., Oxford, UK
The assay is classed as binding. To be noted: REVEAL assay, assembly of peptide-HLA complex by ELISA with conformation-dependent anti-HLA antibody, relative to positive control peptide for that allele, comparable within an allele only. A general note: In an ELISA, binding on a coated surface is turned into a signal by an enzyme label.

The target in assay [2] is T2, HLA class I molecule B*0702 (Homo sapiens, UniProt P01889).
T2 construct: purchased ProImmune Ltd., Oxford, UK
The experiment in a line: REVEAL HLA-peptide binding assay, B*0702. On the set-up: concentration or dose not given beside the values. The following applies: assembly of peptide-HLA complex by ELISA with conformation-dependent anti-HLA antibody, relative to positive control peptide for that allele, comparable within an allele only. The protocol:
(§1) The REVEAL HLA-peptide binding assay (ProImmune Ltd., Oxford, UK) was used to quantify peptide-HLA binding. For each allele-peptide combination that was tested, assembly of peptide-HLA complexes was quantified by ELISA with a conformation-dependent anti-HLA antibody. Samples of assembling peptide-HLA complexes were taken at a defined time point and snap-frozen in liquid nitrogen prior to analysis. The assembly for each peptide-HLA complex was then compared against a positive control peptide for that allele as the percentage of assembled peptide relative to that control. We selected four HLA class I alleles and 50 HTLV-1 peptides for each allele. The allele choice was based on allele frequency in the Kagoshima database and included 2 A alleles and 2 B alleles as well as alleles for which we knew that the epitope prediction tended to be poor. The 50 HTLV-1 nonamer peptides for each allele were selected to represent a range of predicted binding affinities, from weak to strong binding peptides. They originated from 4 HTLV-1 reference strain proteins: Tax, HBZ, Gag and Polymerase.
(§2) Note the binding score is with respect to a reference good binding peptide for each allele and therefore scores can be compared within an allele but not between alleles.

Assay [3] deals with HLA class I molecule B*3501 (Homo sapiens, UniProt P01889, A329T/A93T/A95T/C349S/D201E/D98Y/E176V/E187L/E204Q/E69T/I218V/K202T/L119I/Q94N/R155S/R180L/S121R/S35A/S48A/T118I/V127L/V306I/V36M/Y140S/Y91F). The experiment in a line: REVEAL HLA-peptide binding assay, B*3501. The following applies: assembly of peptide-HLA complex by ELISA with conformation-dependent anti-HLA antibody, relative to positive control peptide for that allele, comparable within an allele only. The method, then: as §1, §2

Assay [4] deals with T3, HLA class I molecule A*2402 (Homo sapiens, UniProt P04439, D101N/D140Y/D185E/E176V/E190D/F33S/G103R/G107R/I119L/I121M/I306V/K335N/L105A/L180Q/L300P/N151K/N90K/Q86E/Q94H/R106L/R138H/R89G/T104I/T345S/V100E/W191G/Y123F).
T3 construct: purchased ProImmune Ltd., Oxford, UK
The assay is classed as binding. The following applies: REVEAL assay, assembly of peptide-HLA complex by ELISA with conformation-dependent anti-HLA antibody, relative to positive control peptide for that allele, comparable within an allele only.

Assay [5] deals with autologous B-LCL loaded with HBZ26–34 peptide. The experiment in a line: Chromium release assay, peptide-loaded B-LCL. The assay is classed as cell-based, human. The following applies: 1 µM HBZ 26–34 peptide, 4 h, ^51Cr release; data not shown. The method, then:
PBMC from HLA A*0201^+ and HLA A*0201^− HTLV-1 infected individuals were depleted of CD8^+ cells, then enriched for CD25^+ cells using MACS beads (Miltenyi Biotech, Germany), according to manufacturer's instructions. CD25^+ cells were cultured for 16h to allow for viral antigen expression and presentation, then labelled with ^51Cr by incubating for 1h in the presence of 50–100 µCi Na2CrO4 (MP Biomedicals, USA). Labelled cells were washed extensively and placed in culture in triplicate (40,000 cells/well) in the presence of defined ratios of HBZ-1, a CTL clone which recognises HBZ 26–34 in the context of HLA A*0201 [37], alone or in the presence of 5% Triton x-100 (Sigma Aldrich). As a control, ^51Cr labelled B-LCL (autologous to the CTL clone) were cultured at the same ratios, with and without 1 µM HBZ 26–34 peptide. […] Total specific lysis was calculated using the following formula: [chromium release (test well)−chromium release (no CTL control)]/ [chromium release (Triton−100% lysis)−chromium release (no CTL control)]*100, expressed as a percentage specific lysis of total cells. […] Percentage infected cells lysed was calculated using the following formula: [Percentage total cells lysed]/[fraction of CD4^+CD25^+ cells that are infected i.e. provirus positive].

On to AAHHWLNFL [HTLV-1 nonamer peptide], for which the “Score (experimentally measured binding affinity, % binding compared to control peptide)” value in assay [1] turned out to be 5.86%; in assay [2], 27.59%; in assay [3], 0%.

In the case of LAAHHWLNF [HTLV-1 nonamer peptide], the “Score (experimentally measured binding affinity, % binding compared to control peptide)” value in assay [2] is on record as 4.59%; in assay [4], 35.91%; in assay [3], 75.12%.

Turning to RICPINYSL [HTLV-1 nonamer peptide], the “Score (experimentally measured binding affinity, % binding compared to control peptide)” value worked out at 71.46% in assay [1], 110.59% in assay [2] and 77.87% in assay [4].

As to QAMRKYSPF [HTLV-1 nonamer peptide], the “Score (experimentally measured binding affinity, % binding compared to control peptide)” value is listed as 140.22% in assay [2], 56.78% in assay [4] and 69.18% in assay [3].

As for “GLLSLEEEL [HTLV-1 nonamer peptide, HBZ26–34, recognised in the context of HLA-A*0201]”, in assay [1], the “Score (experimentally measured binding affinity, % binding compared to control peptide)” value was 63.68%. Further, in assay [5], the “Lysis of peptide-loaded autologous B-LCL by the HBZ-specific CD8^+ T cell clone” value is given as “could be lysed by the CD8^+ T cell clone”.

Turning to KALMPVFTL [HTLV-1 nonamer peptide], the “Score (experimentally measured binding affinity, % binding compared to control peptide)” value in assay [1] is 79.88%; in assay [2], 40.22%; in assay [4] it was 8.05%; in assay [3], 11.5%.

Take IQYSSFHSL [HTLV-1 nonamer peptide]: the figures for the “Score (experimentally measured binding affinity, % binding compared to control peptide)” value in assay [1], in assay [2] and in assay [4] were 93.93%, 2.94% and 87.52%, respectively.

For SAQWIPWRL [HTLV-1 nonamer peptide], the “Score (experimentally measured binding affinity, % binding compared to control peptide)” value was 24.03% in assay [1], 0% in assay [2], 27.07% in assay [4] and 14.94% in assay [3].

Take ASGLFRCLP [HTLV-1 nonamer peptide]: the “Score (experimentally measured binding affinity, % binding compared to control peptide)” value stood at 2.99% in assay [1], 2% in assay [2], 4.14% in assay [4] and 0% in assay [3].

For the sequence FVERLNIAL [HTLV-1 nonamer peptide], the “Score (experimentally measured binding affinity, % binding compared to control peptide)” value is 6.6% in assay [1], 104.14% in assay [2] and 13.69% in assay [3].

Consider RVNEILHIL [HTLV-1 nonamer peptide], for which the “Score (experimentally measured binding affinity, % binding compared to control peptide)” value in assay [1] stood at 49.35%; in assay [2], 89.83%; in assay [3], 8.02%.

As to SLVQLRQAL [HTLV-1 nonamer peptide], the “Score (experimentally measured binding affinity, % binding compared to control peptide)” value in assay [1] turned out to be 6.84%; in assay [2], 119.22%; in assay [3] it was 0%.

As to RVIGSALQF [HTLV-1 nonamer peptide], the “Score (experimentally measured binding affinity, % binding compared to control peptide)” value in assay [2] is listed as 87.63%; in assay [4], 65.17%; in assay [3], 42.94%.

On to GFGQSLLFG [HTLV-1 nonamer peptide], for which the “Score (experimentally measured binding affinity, % binding compared to control peptide)” value is given as 0.29% in assay [1], 0% in assay [2], 1.06% in assay [4] and 0% in assay [3].

On to AVLDGLLSL [HTLV-1 nonamer peptide], for which the “Score (experimentally measured binding affinity, % binding compared to control peptide)” value in assay [1] is given as 92.9%; in assay [2] it was 18.76%; in assay [4] it was 1.41%; in assay [3], 0%.

Turning to TFLKTAAPL [HTLV-1 nonamer peptide], the “Score (experimentally measured binding affinity, % binding compared to control peptide)” value in assay [2] is 28.15%; in assay [4] it was 86.12%.
